In patent EP1285971B1, “Methods for the phenotypic and genotypic assessment of the drug sensitivity of HIV integrase variants” (Tibotec Pharmaceuticals Ltd., priority 2001, dated 2003):
pEC50: −log10 of the molar value.

System: pHXB2D control
Assay: Antiviral experiment with control clone, transfected directly without recombination
Assay type: cell-based, HIV
Details: no recombination; for fold change: fold change in EC50
Description: Recombinant virus was produced by co-transfection by electroporation of the SmaI-linearized IN-deletion construct and the integrase amplicon into MT4 cells or MT4 cells equipped with an LTR driven reporter gene construct. Production of recombinant virus was evaluated by scoring the cytopathogenic effect (CPE) that is induced by HIV-infection of MT4 cells or by the LTR-driven reporter signal induced by HIV infection in MT4 reporter cells. Green fluorescent protein was used as the reporter signal. Viruses are harvested and titrated at maximum CPE. For recombination the deletion construct pSV40HXB2D-ΔIN was used. Recombination experiments were performed with amplicon from wildtype HIV IIIB and NL4.3, and patient sample 146514 generated by both primer sets. For each recombination 2 µg amplicon was co-transfected with 10 µg SmaI-digested pSV40HXB2D-ΔIN by electroporation into MT4-LTR-EGFP cells. Virus stocks were titrated and tested in an antiviral experiment on a reference panel including nucleoside reverse transcriptase inhibitors (NRTI), non- nucleoside reverse transcriptase inhibitors (NNRTI), protein inhibitor (PR), entry and integrase (IN) inhibitors (Table 2). Recombination was checked by nucleic acid sequence analysis using protocols known to the person skilled in the art. Sequencing primers which can be used are In_seq1F (SEQ ID NO 17), In_seq2F (SEQ ID NO 18), In_seq3F (SEQ ID NO 19), IN_seq1R (SEQ ID NO 20), IN_seq2R (SEQ ID NO 21), and IN_seq3R (SEQ ID NO 22). The recombinant virus was evaluated in an anti-viral assay with a panel of reference compounds including nucleoside RT inhibitors (NRTI) Zidovudine (AZT) Lamivudine (3TC), Didanosine (DDI), non-nucleoside RT inhibitors (NNRTI) Nevirapine (NVP), 4-[[6-amino-5-bromo-2-[(4-cyanophenyl)amino]-4-pyrimidinyl]oxy]-3,5-dimethyl-benzonitrile also referred to as compound 1, 4-[[6-amino-5-bromo-2-[(4-cyanophenyl)amino]-4-pyrimidinyl]oxy]-3,5-dimethyl-Benzonitrile, also referred to as compound 2 protease inhibitors (PR) Saquinavir (SQV), Amprenavir (APV), Indinavir (IDV), [[…]-3-[[(4-aminophenyl)sulfonyl](2-methylpropyl)amino]-2-hydroxy-1-(phenylmethyl)-propyl]-, (3R,3aS,6aR)-hexahydrofuro[2,3-b]furan-3-yl ester carbamic acid also referred to as compound 3, entry-inhibitors (Entry)(AMD3100, DS5000, ATA), and integrase inhibitor (IN) 2-(1-methylethyloxy)-α,γ dioxo-5-(phenylmethyl)-benzenebutanoic acid also referred to as compound 4. […] AVE means antiviral experiment. Type means the type of inhibitor investigated. The fold change is the fold change in EC50. WT III B means that a portion of the wild type IIIB strain has been amplified and used in the antiviral experiment, including transfection and generation of recombinant virus. NL 4-3 means the integrase gene of this laboratory strain has been amplified and subsequently used for the antiviral experiment. […] No recombination has been effected using this HIV clone. pHXB2D has been used directly for transfection and antiviral experiment. Primer set 3 consist of outer primers 5'EGINT3 (SEQ ID NO 4) and 3'EGINT10 (SEQ ID NO 11), and inner primers 5'EGINT4 (SEQ ID NO 5) and 3'EGINT6 (SEQ ID NO 7). Primer set 4 consist of outer primers 5'EGINT3 (SEQ ID NO 4) and 3'EGINT10 (SEQ ID NO 11), and inner primers 5'EGINT5 […] and 3'EGINT6 (SEQ ID NO 7). Other suitable integrase inhibitors include L-731,988, diketo-acids and S-1360.

[1] = Human immunodeficiency virus 1, AVE 6, pHXB2D control

Cc1cc(C#N)cc(C)c1Oc1nc(Nc2ccc(C#N)cc2)nc(N)c1Br [Compound 1, 4-[[6-amino-5-bromo-2-[(4-cyanophenyl)amino]-4-pyrimidinyl]oxy]-3,5-dimethyl-benzonitrile]
pEC50 (AVE 6, pHXB2D control): 9.00 | fold change (AVE 6, pHXB2D control): 1,0

Cc1cn([C@H]2C[C@H](N=[N+]=[N-])[C@@H](CO)O2)c(=O)[nH]c1=O [AZT, Zidovudine]
fold change (AVE 6, pHXB2D control): 1,0 | pEC50 [1]: 6.78

Cc1ccnc2c1NC(=O)c1cccnc1N2C1CC1 [NVP, Nevirapine]
fold change (AVE 6, pHXB2D control): 1,0 | pEC50 [1]: 7.06

CC(C)c1nc(CN(C)C(=O)N[C@H](C(=O)N[C@@H](Cc2ccccc2)C[C@H](O)[C@H](Cc2ccccc2)NC(=O)OCc2cncs2)C(C)C)cs1 [RTV, ritonavir]
fold change (AVE 6, pHXB2D control): 1,0 | pEC50 [1]: 6.83

Nc1ccn([C@@H]2CS[C@H](CO)O2)c(=O)n1 [Compound 3TC, Lamivudine]
fold change (AVE 6, pHXB2D control): 1,0 | pEC50 [1]: 5.86

c1cc(CN2CCCNCCNCCCNCC2)ccc1CN1CCCNCCNCCCNCC1 [AMD3100]
fold change (AVE 6, pHXB2D control): 1,0 | pEC50 [1]: 7.25

Cc1cc(C#N)cc(C)c1Oc1nc(Nc2ccc(C#N)cc2)nc(N)c1Br [Compound 2, 4-[[6-amino-5-bromo-2-[(4-cyanophenyl)amino]-4-pyrimidinyl]oxy]-3,5-dimethyl-Benzonitrile]
pEC50 (AVE 6, pHXB2D control): 8.51 | fold change (AVE 6, pHXB2D control): 1,0

CC(C)(C)NC(=O)[C@@H]1C[C@@H]2CCCC[C@@H]2CN1C[C@@H](O)[C@H](Cc1ccccc1)NC(=O)[C@H](CC(N)=O)NC(=O)c1ccc2ccccc2n1 [SQV, Saquinavir]
fold change (AVE 6, pHXB2D control): 1,0 | pEC50 [1]: 7.70

O=c1[nH]cnc2c1ncn2[C@H]1CC[C@@H](CO)O1 [DDI, Didanosine]
fold change (AVE 6, pHXB2D control): 1,0 | pEC50 [1]: 5.32

CC(C)CN(C[C@@H](O)[C@H](Cc1ccccc1)NC(=O)O[C@H]1CCOC1)S(=O)(=O)c1ccc(N)cc1 [APV, Amprenavir]
fold change (AVE 6, pHXB2D control): 1,0 | pEC50 [1]: 7.08

O=C(O)C1=CC(=C(c2ccc(O)c(C(=O)O)c2)c2ccc(O)c(C(=O)O)c2)C=CC1=O [ATA]
pEC50 (AVE 6, pHXB2D control): 5.68 | fold change (AVE 6, pHXB2D control): 1,0

CC(C)Oc1ccc(Cc2ccccc2)cc1C(=O)CC(=O)C(=O)O [Compound 4, 2-(1-methylethyloxy)-α,γ dioxo-5-(phenylmethyl)-benzenebutanoic acid]
fold change (AVE 6, pHXB2D control): 1,0 | pEC50 [1]: 6.56

CC(C)(C)NC(=O)[C@@H]1CN(Cc2cccnc2)CCN1C[C@@H](O)C[C@@H](Cc1ccccc1)C(=O)N[C@H]1c2ccccc2C[C@H]1O [IDV, Indinavir]
fold change (AVE 6, pHXB2D control): 1,0 | pEC50 [1]: 7.36
